From ChEMBL document CHEMBL4229572, “VU6007477, a Novel M1 PAM Based on a Pyrrolo[2,3-b]pyridine Carboxamide Core Devoid of Cholinergic Adverse Events” (ACS Med Chem Lett, 2018)
Positions count from the first letter of the chain named. Calls of active or inactive are those of the source. No cut-off for these calls is given here.

What was measured:
[1] = target: T1, Muscarinic acetylcholine receptor M1 (Rattus norvegicus, UniProt P08482); assay: (§1) Positive allosteric modulation of rat M1 receptor expressed in CHO cells assessed as increase in acetylcholine-induced calcium mobilization pretreated for 2.5 mins followed by acetylcholine addition and measured after 1 min by Fluo-4-AM dye based assay; format: functional, cell-based
T1 sequence (P08482 whole entry): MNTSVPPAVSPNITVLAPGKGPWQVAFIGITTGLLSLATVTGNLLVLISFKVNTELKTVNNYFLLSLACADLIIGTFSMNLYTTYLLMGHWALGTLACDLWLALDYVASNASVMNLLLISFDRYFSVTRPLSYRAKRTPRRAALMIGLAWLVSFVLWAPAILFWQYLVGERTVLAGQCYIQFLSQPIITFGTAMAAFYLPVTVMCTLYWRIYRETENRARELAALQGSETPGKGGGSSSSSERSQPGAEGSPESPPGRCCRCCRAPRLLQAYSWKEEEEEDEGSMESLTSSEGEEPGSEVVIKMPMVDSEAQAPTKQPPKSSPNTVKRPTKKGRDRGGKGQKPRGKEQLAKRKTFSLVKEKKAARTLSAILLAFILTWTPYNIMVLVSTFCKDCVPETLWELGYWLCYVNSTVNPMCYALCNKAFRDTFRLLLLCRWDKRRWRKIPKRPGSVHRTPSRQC

[2] = target: T2, Muscarinic acetylcholine receptor M1 (Rattus norvegicus) (UniProt P08482); assay: as §1; format: functional, cell-based
T2 sequence (whole entry): T1 sequence (P08482 whole entry)

[3] = target: T1, Muscarinic acetylcholine receptor M1; assay: (§2) Agonist activity at rat M1 receptor expressed in CHO cells assessed as increase in calcium mobilization measured after 2.5 mins by Fluo-4-AM dye based assay; format: functional, cell-based
[4] = Protein binding in human plasma assessed as unbound fraction at 5 uL measured after 4 hrs by LC-MS/MS based equilibrium dialysis method; format: ADME, cell-free
[5] = Total brain to plasma partition coefficient, Kp in cannulated Sprague-Dawley rat at 0.2 mg/kg, iv administered via jugular vein as cassette dose measured after 0.25 hrs by LC-MS/MS analysis; format: ADME, organism-based; settings: for Kp at 0.25 h: Sprague-Dawley, brain and plasma; for Kp: brain, 0.25 h, BLD = below limit of detection
[6] = target: T3, Muscarinic acetylcholine receptor M1 (Homo sapiens, UniProt P11229); assay: Agonist activity at human M1 receptor expressed in CHO cells assessed as increase in calcium mobilization measured after 2.5 mins by Fluo-4-AM dye based assay; format: functional, cell-based
T3 sequence (P11229 whole entry): T1 sequence (P08482 whole entry) with V5A, S254T, S309P, K320R, G337A, V413I

[7] = Ratio of unbound brain to plasma concentration in C57BL/6J mouse at 100 mg/kg, ip after 1 hr by LC-MS/MS analysis; format: ADME, organism-based; settings: brain and plasma, read-out: K(p,uu,brain)
[8] = Protein binding in rat plasma assessed as unbound fraction at 5 uL measured after 4 hrs by LC-MS/MS based equilibrium dialysis method; format: ADME, cell-free
[9] = Protein binding in rat brain assessed as unbound fraction; format: ADME, tissue-based
[10] = target: T3, Muscarinic acetylcholine receptor M1; assay: (§3) Positive allosteric modulation of human M1 receptor expressed in CHO cells assessed as increase in acetylcholine-induced calcium mobilization pretreated for 2.5 mins followed by acetylcholine addition and measured after 1 min by Fluo-4-AM dye based assay; format: functional, cell-based
[11] = target: T4, Muscarinic acetylcholine receptor M1 (Homo sapiens) (UniProt P11229); assay: as §3; format: functional, cell-based
T4 sequence (whole entry): T1 sequence (P08482 whole entry) with V5A, S254T, S309P, K320R, G337A, V413I

Mus musculus = assay: Cholinergic toxicity in C57BL/6J mouse assessed as induction of seizure activity at 100 mg/kg, ip measured within 30 mins; format: organism-based; settings: in vivo, 0.5 h
[12] = Total brain to plasma partition coefficient, Kp in C57BL/6J mouse at 100 mg/kg, ip after 1 hr by LC-MS/MS analysis; format: ADME, organism-based; settings: brain and plasma
[13] = target: T2, Muscarinic acetylcholine receptor M1 (Rattus norvegicus); assay: as §2; format: functional, cell-based
[14] = Ratio of unbound brain to plasma concentration in cannulated Sprague-Dawley rat at 0.2 mg/kg, iv administered via jugular vein as cassette dose measured after 0.25 hrs by LC-MS/MS analysis; format: ADME, organism-based; settings: for Kp uu at 0.25 h: Sprague-Dawley, brain and plasma, read-out: K(p,uu,brain); for K(p,uu,brain): 0.25 h, BLD = below limit of detection

Row | Compound | EC50 ([1]; read-out: EC50) | %max [2] | EC50 ([3]; read-out: EC50) | %max [13] | EC50 ([3]; read-out: pEC50 (converted)) | other results
1 | Cn1ccc(-c2ccc(Cc3cc(C(=O)NC4CC5(COC5)C4)nc4c3ccn4C)cc2)n1 | 604 nM | 91% | > 10000 nM |  |  | 
2 | Cn1ccc(-c2ccc(Cc3cc(C(=O)N[C@@H]4CCOC[C@H]4O)nc4c3ccn4C)cc2)n1 | 40 nM | 87% | 2240 nM | 65% |  | fraction unbound at 4 h, 5 uL [4]: 0.02; Kp at 0.25 h [5]: 0.11; EC50 [6]: 60.3 nM; Kp uu at 1 h [7]: 0.04; fraction unbound at 4 h, 5 uL [8]: 0.03; fraction unbound [9]: 0.01; EC50 [10]: 60 nM; %max [11]: 83%; Activity (Mus musculus): Toxic; Kp at 1 h [12]: 0.09; Kp uu at 0.25 h [14]: 0.05
3 | Cn1ccc2c(Cc3ccc(-c4cscn4)cc3)cc(C(=O)NC3CCOCC3)nc21 | 760 nM | 86% | > 30000 nM |  | > 31600 nM | 
4 | Cn1ccc2c(Cc3ccc(-c4nccs4)cc3)cc(C(=O)N[C@@H]3CCCC[C@H]3O)nc21 | 360 nM | 91% | > 30000 nM |  | > 31600 nM | 
5 | Cn1cc(-c2ccc(Cc3cc(C(=O)N[C@@H]4CCCC[C@H]4O)nc4c3ccn4C)cn2)cn1 | 40 nM | 89% | 1210 nM | 58% |  | fraction unbound at 4 h, 5 uL [4]: 0.04; Kp [5]: Bld; Kp uu at 1 h [7]: 0.04; fraction unbound at 4 h, 5 uL [8]: 0.06; fraction unbound [9]: 0.07; Activity (Mus musculus): Toxic; Kp at 1 h [12]: 0.03; K(p,uu,brain) [14]: Bld
6 | Cn1ccc2c(Cc3ccc(-n4cccn4)cc3)cc(C(=O)NC3CCOCC3)nc21 | 490 nM | 87% |  | 26% | > 10000 nM | EC50 ([3]; cho, read-out: EC50): > 10000 nM
7 | Cn1ccc(-c2ccc(Cc3cc(C(=O)NC4CCOC(C)(C)C4)nc4c3ccn4C)cn2)n1 (centres undefined) | 550 nM | 94% |  |  | > 10000 nM | EC50 ([3]; cho, read-out: EC50): > 10000 nM
8 | Cn1ccc(-c2ccc(Cc3cc(C(=O)NC4CC5(COC5)C4)nc4c3ccn4C)cn2)n1 | 570 nM | 89% | > 30000 nM |  | > 31600 nM | 
9 | Cn1ccc(-c2ccc(Cc3cc(C(=O)N[C@@H]4CCCC[C@H]4O)nc4c3ccn4C)cc2)n1 | 180 nM | 87% | 3240 nM | 41% |  | EC50 [6]: 182 nM; EC50 [10]: 180 nM; %max [11]: 84%
10 | Cc1nc(-c2ccc(Cc3cc(C(=O)NC4CCOCC4)nc4c3ccn4C)cc2)co1 | 760 nM | 88% |  |  | > 10000 nM | EC50 ([3]; cho, read-out: EC50): > 10000 nM
11 | Cn1ccc(-c2ccc(Cc3cc(C(=O)NC4CCOCC4)nc4c3ccn4C)cc2)n1 | 560 nM | 89% | > 10000 nM |  |  | fraction unbound at 4 h, 5 uL [4]: 0.02; Kp [5]: Bld; EC50 [6]: 661 nM; fraction unbound at 4 h, 5 uL [8]: 0.04; fraction unbound [9]: 0.01; EC50 [10]: 660 nM; %max [11]: 87%; K(p,uu,brain) [14]: Bld
12 | Cn1cc(-c2ccc(Cn3cc(C(=O)N[C@H]4CCCC[C@@H]4O)c4c(F)cc(F)cc43)cn2)cn1 |  |  |  |  |  | Activity [2]: inactive
13 | Cn1ccc(-c2ccc(Cc3cc(C(=O)N[C@@H]4CCOC[C@H]4O)nc4c3ccn4C)cn2)n1 | 14 nM | 86% | 575 nM | 67% |  | 
14 | Cn1ccc2c(Cc3ccc(-c4nccs4)cc3)cc(C(=O)N[C@@H]3CCOC[C@H]3O)nc21 | 100 nM | 90% | 5620 nM | 41% |  | fraction unbound at 4 h, 5 uL [4]: 0.02; Kp at 0.25 h [5]: 0.21; EC50 [6]: 89.1 nM; fraction unbound at 4 h, 5 uL [8]: 0.02; fraction unbound [9]: 0.01; EC50 [10]: 90 nM; %max [11]: 80%; Activity (Mus musculus): Toxic; Kp uu at 0.25 h [14]: 0.13
15 | Cn1ccc(-c2ccc(Cc3cc(C(=O)NCC4CCOCC4)nc4c3ccn4C)cn2)n1 | 1580 nM | 87% | > 30000 nM |  | > 31600 nM | 
16 | Cn1ccc(-c2ccc(Cc3cc(C(=O)NC[C@@H]4CCCO4)nc4c3ccn4C)cn2)n1 | 490 nM | 84% |  |  | > 10000 nM | EC50 ([3]; cho, read-out: EC50): > 10000 nM
17 | Cn1ccc(-c2ccc(Cc3cc(C(=O)N[C@@H]4CCC[C@H]4O)nc4c3ccn4C)cn2)n1 | 260 nM | 86% |  |  | > 10000 nM | EC50 ([3]; cho, read-out: EC50): > 10000 nM
18 | O=C(N[C@H]1CCCC[C@@H]1O)C1CN(Cc2ccc(-n3cccn3)cc2)c2ccccc2O1 (some centres undefined) |  |  |  |  |  | Activity [2]: inactive
19 | Cn1ccc(-c2ccc(Cc3cc(C(=O)N[C@@H]4CCCC[C@H]4O)nc4c3ccn4C)cn2)n1 | 90 to 100 nM | 87% | 2290 nM | 53% |  | fraction unbound at 4 h, 5 uL [4]: 0.12; EC50 ([1]; read-out: pEC50 (converted)): 95.5 nM; Kp [5]: Bld; EC50 [6]: 123 nM; Kp uu at 1 h [7]: 0.17; fraction unbound at 4 h, 5 uL [8]: 0.03; fraction unbound [9]: 0.04; EC50 [10]: 120 nM; %max [11]: 79%; Activity (Mus musculus): Toxic; Kp at 1 h [12]: 0.28; K(p,uu,brain) [14]: Bld
20 | Cn1ccc2c(Cc3ccc(-c4nccs4)cc3)cc(C(=O)NC3CCOCC3)nc21 | 1740 nM | 78% | > 30000 nM |  | > 31600 nM | 
21 | Cn1ccc(-c2ccc(Cc3cc(C(=O)NC4CCOCC4)nc4c3ccn4C)cn2)n1 | 760 nM | 90% |  | 34% | > 10000 nM | EC50 ([3]; cho, read-out: EC50): > 10000 nM
